Where two headings read alike, the source gives them in different places.
How the values were obtained:
Assay type in all cases: in vivo
[1] = system: canine genes of the array; test: Canine array fold induction of canine genes in liver of canines dosed with test agents (Table 11); conditions: dog, 0.3 mg/kg, gene = c0 of the row
Excerpt: (§1) Table 11 depicts the fold induction for canine genes in a canine array.

[2] = system: canine genes of the array; test: Canine array fold induction of canine genes in kidney of canines dosed with test agents (Table 11); conditions: dog, 0.3 mg/kg, 10 days, gene = c0 of the row
Excerpt: as §1

[3] = system: Cytochrome P450 2D (gene expression); test: Canine array fold induction of canine genes in kidney of dogs dosed with an agent (Table 11); conditions: dog, kidney, 0.3 mg/kg, canine kidney, 10 days
Excerpt: as §1

[4] = system: Cytochrome P450 2B (gene expression); test: as above; conditions: dog, kidney, 0.3 mg/kg, canine kidney, 10 days
Excerpt: as §1

[5] = system: canine genes in a canine array (Canine kidney); test: as above; conditions: canine kidney, 0.3 mg/kg, 10 days; for fold induction at 0.3 mg/kg: Canis lupus familiaris, 240 h
Excerpt: as §1

[6] = system: Cytochrome P450 2C41 (gene expression); test: as above; conditions: dog, kidney, 0.3 mg/kg, canine kidney, 10 days
Excerpt: as §1

Compound: C[C@]12CC[C@@H]3c4ccc(O)cc4CC[C@H]3[C@@H]1CC[C@@H]2O [Estradiol]
- fold induction at 10 days ([1]; 0.3 mg/kg, 10196, Canine Liver, 10 days): 1
- fold induction at 10 days ([1]; 0.3 mg/kg, 10316, Canine liver, 10 day): 1.2
- fold induction at 10 days ([2]; 0.3 mg/kg, 10087, canine kidney): 1.6
- fold induction at 10 days ([2]; 0.3 mg/kg, 10089, canine kidney): 1
- fold induction at 10 days [3]: 1.2
- fold induction at 10 days [4]: 1.2
- fold induction at 0.3 mg/kg ([5]; read-out: Alkaline phosphatase fold induction): 1.4
- fold induction at 0.3 mg/kg ([5]; read-out: Angiopoietin-related protein 3 (ANGPTL3) fold induction): 1.1
- fold induction at 0.3 mg/kg ([5]; read-out: BRCA1 fold induction): 1.1
- fold induction at 0.3 mg/kg ([5]; read-out: Beta-glucuronidase fold induction): 1.3
- fold induction at 0.3 mg/kg ([5]; read-out: CD40 ligand fold induction): 1.1
- fold induction at 0.3 mg/kg ([5]; read-out: Catalase fold induction): 1.2
- fold induction at 0.3 mg/kg ([5]; read-out: Caveolin-1 fold induction): 1.4
- fold induction at 0.3 mg/kg ([5]; read-out: Caveolin-2 fold induction): 1.7
- fold induction at 0.3 mg/kg ([5]; read-out: Cubilin fold induction): 1.1
- fold induction at 0.3 mg/kg ([5]; read-out: Cytochrome c oxidase subunit VIIaL fold induction): 1
- fold induction at 0.3 mg/kg ([5]; read-out: c-erb B-2 fold induction): 1.3
- Alkaline phosphatase fold induction [5]: 1.6
- Caveolin-2 fold induction [5]: 1.6
- fold induction at 10 days [6]: 1.7
